From the METLIN SMRT retention time set (Domingo-Almenara et al. 2019)

Assay: gradient 5% acetonitrile 3 min, to 50% in 2 min, to 85% in 15 min, held 3 min, 100 µL/min
Settings: column: Zorbax Extend-C18 2.1 x 50 mm; eluents: water / acetonitrile, 0.1% formic acid
Method in brief: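 Using water and acetonitrile that each contained 0.1% formic acid, mixtures of ~100 pure standards were separated at 100 μL/min on a Zorbax Extend-C18 column (2.1 × 50 mm, 1.8 μm). The HPLC fed a quadrupole time-of-flight mass spectrometer working in positive and negative ionization mode, with dead and dwell volumes of 40 μL and 900 μL. Data were acquired over 3 months. Retention time was read from computationally picked adduct peaks after manual inspection of each.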

| SMILES | RP-LC retention time |
| --- | --- |
| O=C(c1cc(-c2ccco2)on1)N1CCC2(CC1)OCCS2 | 822 s |
| CCNC(=O)c1n[nH]c2c1CN(C(=O)c1cccc(Br)c1)CC2 | 678 s |
| Cc1cc(C)cc(C(=O)N2CCC(C(=O)NCc3csc(-c4cccs4)n3)CC2)c1 | 860 s |
| O=c1ccc(-c2ccccc2)nn1CCc1nc(-c2cccc(Cl)c2)no1 | 1030 s |
| O=C(Cc1ccc(F)cc1)NC1CCN(c2cc(-c3ccccc3)[nH]n2)C1 (stereo unspecified) | 706 s |
| O=C(C1CCN(c2nc3cccnc3s2)CC1)N1CCN(c2ccccn2)CC1 | 590 s |
| O=C(Cn1cccc(-c2nc(-c3ccc(Br)cc3)no2)c1=O)Nc1ccc(F)cc1 | 980 s |
| COc1ccc(NC(=O)CSc2nc3nc(C)cc(C)n3n2)cc1OC | 652 s |
| COc1ccc(N2CCN(C(=O)Cn3cccc3-c3nnc(C4CCC4)o3)CC2)cc1 | 795 s |
| Cc1ccc(NC(=O)N2CC(n3ccnc3C(C)C)C2)cc1C | 642 s |
| CC1CCCC(NC(=O)Cn2cnc3onc(-c4ccc(Cl)cc4)c3c2=O)C1C (stereo unspecified) | 1100 s |
| COc1ccccc1-c1noc(C2CCCN2C(=O)Nc2cccc(SC)c2)n1 (stereo unspecified) | 908 s |
| O=C(Nc1cc(-c2ccccn2)no1)c1cccc(F)c1 | 791 s |
| O=C(Cc1csc2nc(-c3cccc(Br)c3)cn12)Nc1ccccc1F | 958 s |
| CCOc1ccc(NC(=O)Cn2nc(N3CCC(C)CC3)c3ccccc3c2=O)cc1 | 1130 s |
| Cc1sc2ccn(CC(C)C)c(=O)c2c1C(=O)NCCN1CCCCC1 | 639 s |
| FC(F)(F)c1ccc(CN2CCN(c3cnn4cnnc4c3)CC2)cc1 | 594 s |
| O=c1n(Cc2ccccc2)nc2n1CCN(S(=O)(=O)Cc1ccccc1)CC2 | 816 s |
| NC(=O)c1oc2ccccc2c1NC(=O)C1=COCCO1 | 672 s |
| CNC(=O)c1sc2nc(-c3ccccc3)c(NCCOC)n2c1C | 637 s |
| CCN1CCN(Cc2ccc(-c3cc4c(N[C@H](C)c5ccccc5)ncnc4[nH]3)cc2)CC1 | 628 s |
| Cc1ccc(NC(=O)N(CCc2cccs2)Cc2cccnc2)cc1C | 649 s |
| Cc1noc(-c2ccc(NC(=O)COc3ccccc3F)cc2)n1 | 832 s |

| SMILES | RP-LC retention time |
| --- | --- |
| Cc1cc(C)cc(C(=O)N2CCCC(C(=O)NCCN3CCCC3)C2)c1 (stereo unspecified) | 606 s |
| O=C(NC1CCCC1)C1CCN(c2cncnc2N2CCCCC2)CC1 | 641 s |
| CN(C)CCNC(=O)CN1C(=O)C2CCCCN2c2ccc(S(=O)(=O)N3CCCC3)cc21 (stereo unspecified) | 775 s |
| COc1ccc(-c2cc(N3CCN(C(=O)NCCC(C)C)CC3)ncn2)cc1 | 670 s |
| CCOc1ccc(C(=O)NC(C(=O)Nc2nc3ccccc3[nH]2)C(C)CC)cc1 (stereo unspecified) | 750 s |
| Cc1cccnc1NC(=O)C1CCN(S(=O)(=O)c2cc(C(=O)N3CCOCC3)cs2)CC1 | 606 s |
| CN(C)S(=O)(=O)c1ccc(C(=O)Nc2nc(-c3coc4ccccc34)cs2)cc1 | 1030 s |
| CCc1ccccc1NC(=O)Cn1c(C)nc2c(sc3nc(-c4ccccc4)ccc32)c1=O | 1080 s |
| Cc1ccc(Cn2c(N3CCCC(C(=O)NCC4CC4)C3)nc3ccsc3c2=O)cc1 (stereo unspecified) | 894 s |
| Clc1ccc(CSc2cc(Cl)ncn2)cc1 | 1170 s |
| CCOC(=O)C1=C(CN2CC(C)CC(C)C2)NC(=O)NC1c1ccc(OC)cc1 (stereo unspecified) | 653 s |
| Cc1cccc(CNC(=O)Cn2c(=O)c3nnc(C)n3c3ncccc32)c1 | 685 s |
| O=C1CC(NS(=O)(=O)c2ccc(Br)s2)CN1 (stereo unspecified) | 630 s |
| CC1CN(C(=O)c2cc3cc([N+](=O)[O-])ccc3s2)CC(C)O1 (stereo unspecified) | 780 s |
| CCc1nnc(-c2cc(C)n(CC(=O)Nc3cccc(SC)c3)c2C)o1 | 846 s |
| O=c1ccn(-c2ccc(Cl)cc2)nc1-c1nc(-c2ccccc2Br)no1 | 1000 s |
| O=C1NC(=O)c2cc(Nc3ccccc3)c(Nc3ccccc3)cc21 | 1040 s |
| Cc1ccc2[nH]cc(CCNC(=O)CSCc3nnc(C(=O)Nc4ccc(F)cc4)s3)c2c1 | 918 s |
| CC(=O)NC(C)C(=O)N1CCC(CCOc2cccnc2)CC1 (stereo unspecified) | 567 s |
| CCCCCNC(=O)c1ccc2nc(CCc3ccc(NC(=O)C(C)C)cc3)[nH]c2c1 | 689 s |
| COc1ccc(S(=O)(=O)N2CCCC(C)(C(=O)NCc3ccccc3)C2)cc1 (stereo unspecified) | 917 s |
| CCc1nnc(-c2cccn2CC(=O)NCc2cccc(Br)c2)o1 | 835 s |
| CCc1noc(NC(C)=O)c1-c1ccc(OC)c(S(=O)(=O)Nc2ccc(C)c(C)c2)c1 | 846 s |

| SMILES | RP-LC retention time |
| --- | --- |
| Cc1cccc(-c2ncccc2CNS(=O)(=O)c2ccccc2F)c1 | 702 s |
| COc1ccccc1CNC(=O)CSc1cc(N2CCN(c3ccccc3OC)CC2)ncn1 | 888 s |
| CCCN1CCN(C(=O)C(C)C2CCN(S(=O)(=O)c3ccc(Cl)s3)CC2)CC1 (stereo unspecified) | 674 s |
| O=C(NCC(O)c1cccc2ccccc12)Nc1c(F)cccc1F (stereo unspecified) | 745 s |
| COC(=O)c1cnn2c(C)c(Cc3ccc(F)cc3)c(C)nc12 | 845 s |
| CC(C)N1CCN(C(=O)c2cc(-c3ccccc3)n[nH]2)CC1 | 589 s |
| CCCc1cc(N2CCN(C(=O)COc3ccccc3)CC2)nc2nnc(C)n12 | 634 s |
| CCn1cc(C(=O)Nc2cccc(Cl)c2)c(S(=O)(=O)N2CCSCC2)n1 | 890 s |
| Cn1c(SCC(=O)N2CCCc3ccccc32)nc2cc(-c3ccccc3)sc2c1=O | 1180 s |
| Cc1c(C(=O)NCCCN2CCC(C)CC2)sc2ncn(CC(=O)N3CCCCC3C)c(=O)c12 (stereo unspecified) | 628 s |
| O=C(Cn1cccc(-c2nc(-c3ccccc3)no2)c1=O)Nc1cc(C(F)(F)F)ccc1Cl | 1040 s |
| COc1ccc(C2=NN(C(=O)c3ccccc3)C(c3cccc([N+](=O)[O-])c3)C2)cc1 (stereo unspecified) | 1000 s |
| Cc1cccc(S(=O)(=O)N2CC3CN(C(=O)C(C)c4ccccc4)CC(C2)O3)c1 (stereo unspecified) | 905 s |
| CCn1ccc(NC(=O)c2ccc(C)cc2C)n1 | 765 s |
| Nc1ncnc(Nc2ccc(Cl)cc2)n1 | 704 s |
| O=C(NCCC1CCN(C(=O)Nc2cc(F)ccc2F)CC1)c1cccs1 | 818 s |
| COC[C@@H]1CN(Cc2c(C)noc2C)C[C@H]1c1ccccn1 | 580 s |
| COc1ccc(OC)c(CNC(=O)c2cccc3c2SCCC3=O)c1 | 801 s |
| O=C(COc1ccc([N+](=O)[O-])cc1)Nc1ccc(S(=O)(=O)N2CCCCC2)cc1 | 886 s |
| Cc1noc(/C=C/c2ccc(S(=O)(=O)N3CCOCC3)s2)c1NC(=O)C1CC1 | 778 s |
| CN1CCN(C(=O)c2cc3n(n2)CC(C)(C(=O)NCc2ccccc2)N(C)C3=O)CC1 (stereo unspecified) | 572 s |
| COc1ccc(N2CC(c3noc(-c4ccc(N(C)C)cc4)n3)CC2=O)cc1 (stereo unspecified) | 889 s |
| COCC1CN(S(=O)(=O)c2cccc(C#N)c2)CC12CCNCC2 (stereo unspecified) | 609 s |

| SMILES | RP-LC retention time |
| --- | --- |
| COC(=O)c1ccc(NC(=O)N(C)c2ccccc2)cc1 | 771 s |
| NC(=O)c1cccn1Cc1ccc(Cl)cc1 | 778 s |
| O=C(NCc1ccc(F)cc1F)c1ccc(NC(=O)C2CC2)cc1N1CCOCC1 | 798 s |
| CCCCCNC(=O)C1CCN(c2cc(Sc3cc(C)ccc3C)ncn2)CC1 | 951 s |
| Cn1nc2n(c1=O)CCN(C(=O)c1cc(C3CC3)[nH]n1)CC2 | 575 s |
| Cc1cc(C)n2nc(SCC(=O)Nc3ccccc3)nc2n1 | 700 s |
| CCC1Oc2ccc(S(=O)(=O)N3CCC(C(=O)NC4CCC(C)CC4)CC3)cc2NC1=O (stereo unspecified) | 904 s |
| CCOC(=O)c1noc2nc(C)nc(Nc3ccc(OCC)cc3)c12 | 1130 s |
| COC(=O)C1=C(CN2CCN(C)CC2)NC(=O)NC1c1ccc(Cl)cc1 (stereo unspecified) | 604 s |
| Cc1c2ccnc(C(N)=O)c2c(C)c2c1[nH]c1ccccc12 | 619 s |
| COCCN1C(=O)Cc2ccccc2C1C(=O)NCc1cccc(Cl)c1 (stereo unspecified) | 766 s |
| CNC(=O)c1ccc2c(c1)CCN2C(=O)C(C)C | 644 s |
| CCOC(=O)c1[nH]c(C)c(CCC(=O)N2CCC(C(=O)NCCc3ccccc3OC)CC2)c1C | 812 s |
| CC1=C(c2cccc(Cl)c2)S(=O)(=O)N=C1N1CCCN(C(=O)CC(C)C)CC1 | 868 s |
| O=C(C1CCN(c2nc(-c3ccc(Cl)cc3)no2)CC1)N1CCOCC1 | 874 s |
| Cc1ccc(CN2CCC3(CC2)CC(O)(c2ccccn2)CCO3)o1 (stereo unspecified) | 595 s |
| CCS(=O)(=O)N1CCC(Cc2ccc(CN3CCOCC3)cc2)CC1 | 622 s |
| COc1ccc2[nH]cc(CCNC(=O)c3cn(-c4ccc(F)cc4)nn3)c2c1 | 868 s |
| CCOc1ccc(C(=O)Nc2nc(-c3cccc(Br)c3)cs2)cc1 | 1240 s |
| Cc1ccccc1Nc1c(-c2ccc(Br)cc2)nc2cnccn12 | 1060 s |
| CC1=C(c2ccc(C)cc2)S(=O)(=O)N=C1N1CCCN(C(=O)NCc2ccco2)CC1 | 803 s |
| CCC(=O)Nc1ccc(-n2cnc(C(=O)NC3CCCCC3)c2)nc1 | 731 s |
